Data on 20 compounds can be found in US10584132B2, “SHMT inhibitors” (The Trustees of Princeton University, priority 2016, dated 2020).

One data set is described as follows: LogP Value. In kind it is physicochemical.
For another data set, the system named is HCT-116 WT cells. Briefly: Cell growth assay (resazurin), HCT-116 wild type, with or without formate. In kind it is cell-based, human. The settings on record: for rescue of effects on cell growth by addition of formate: HCT-116, formate. On the procedure:
(§1) The described cell lines for Examples 8 and 9 are cultured in 96-well plates in Dulbecco's modified eagle media (DMEM) without pyruvate (CELLGRO) with 10% dialysed fetal bovine serum (Invitrogen) in 5% CO2 at 37° C. Approximately 2,500 cells are plated in each well in 90 uL of media. After 24 hours cells are treated with various concentrations of inhibitor (time=0 hours), with or without formate. Growth was assessed at multiple time points (time=0, 24, 48, 72 hours) through measurement of fluorescence at 595 nm (excitation at 535 nm) on a BioTek micro titer plate reader after incubation with resazurin (0.01 mg/mL for 1.5 hours). IC50 curves are generated from percent inhibition of growth at 72 hours.

The next data set deals with HCT-116 ΔSHMT2 cells. Briefly: Cell growth assay, HCT-116 SHMT2 deletion (knock-out) cells. It counts as cell-based, human. On the procedure:
as §1
Clonal deletion cell lines of SHMT1, SHMT2, and SHMT1/2 were generated from the human colorectal carcinoma cell line HCT-116. Paired Cas9 nickase (Cas9n) containing constructs that encoded single-guide RNA sequences targeting SHMT1 or 2 were transiently transfected into cells, and mutant colonies from single clones were picked as described in Ducker et al., (2016) Reversal of Cytosolic One-Carbon Flux Compensates for Loss of the Mitochondrial Folate Pathway, Cell Metab 23, 1140-1153. SHMT1 deletion had no effect on cell growth either in cell culture or as subcutaneous xenografts in nude mice. In contrast, SHMT2 deletion cells grew slower in culture and as xenografts (FIG. 8A).

The nature of a further data set: Liver microsome assay. In kind it is in vitro ADME. The conditions noted are these: pooled male mouse liver microsomes, 2 μM. On the procedure: The following master solution was prepared before compound addition:
Two separate experiments were performed as follows: a) With Cofactors (NADPH and UDPGA): 40 μL of 10 mM NADPH and 40 μL of 20 mM UDPGA were added to the incubations. The final concentrations of microsomes, NADPH and UDPGA were 0.5 mg/mL, 1 mM and 2 mM, respectively. b) Without Cofactors (NADPH and UDPGA): 10 μL of 20 mg/mL liver microsomes and 80 μL of ultra-pure water were added to the incubations. The final concentration of microsomes was 0.5 mg/mL. The mixture was pre-warmed at 37° C. for 5 minutes.
The reaction was started with the addition of 4 μL of 200 μM control compound or test compound solution. Verapamil was used as positive control in this study. The final concentration of test compound or control compound was 2 μM. The incubation solution was incubated in water bath at 37° C. Aliquots of 50 μL were taken from the reaction solution at 0.5, 5, 15, 30, 45 and 60 minutes. The reaction was stopped by the addition of 5 volumes of cold acetonitrile with IS (100 nM alprazolam, 200 nM caffeine and 100 nM tolbutamide). Samples were centrifuged at 3,220 g for 40 minutes. Aliquot of 100 μL of the supernatant was mixed with 100 μL of ultra-pure H2O and then used for LC-MS/MS analysis. The in vitro half-life (in vitro t1/2) was determined from the slope value of the LC-MS signal of the test compound.

The target in the next data set is human SHMT2 (Homo sapiens (Human), UniProt P34897). Briefly: SHMT2 in vitro enzymatic assay (coupled with excess MTHFD2, NADH absorption at 340 nm). In kind it is biochemical.
The target of a further data set is human SHMT1 (Homo sapiens (Human), UniProt P34896). Briefly: SHMT1 in vitro enzymatic assay (coupled with excess MTHFD2, NADH absorption at 340 nm). It counts as biochemical.
In data set [1] the test system is Su-DHL-4 cells. The experiment in a line: Growth of Su-DHL-4 cells in RPMI. It counts as cell-based, human. The conditions noted are these: for cell growth (or death) over 48 h: Su-DHL-4, 5 μM. On the procedure:
Cells were stained with propidium iodide and FITC conjugated Annexin V. 10,000 events shown. […] All conditions included at least normal media glycine (10 mg/L) (mean±SD, n=3).
Co-culture with 1 mM formate restores nucleotide levels selectively in Jurkat cells (mean±SD, n=3-6). […] Note the low uptake in Su-DHL-4 cells (gly=glycine, GSH=glutathione) (mean±SD, n=3). […] The SHMT reaction makes two products, 5,10-methyleneTHF and glycine. When SHMT is inhibited, exogenous formate can be incorporated into the 1C cycle whereas in B-cells poor glycine uptake limits the ability of extracellular glycine to rescue. Strategies that further stress glycine availability augment the efficacy of SHMT inhibition.

The next data set relates to 8988T cells. Briefly: Growth of pancreatic cancer cell line 8988T. In kind it is cell-based, human.
Data set [2] concerns Su-DHL-4 cells. The experiment in a line: Apoptosis by flow cytometry (Annexin V surface staining), Su-DHL-4. It counts as cell-based, human. The conditions noted are these: for apoptotic fraction of cells: 24 hours. An excerpt: Apoptosis was enhanced by co-treatment with formate. In contrast, as expected, formate rescued Jurkat E6-1 leukemia cells from apoptosis (FIG. 11C). Without wishing to be bound by theory, it is hypothesized that the failure of formate to rescue growth in the DLBCL cell lines is due to a requirement for both glycine and 1C units made by SHMT in these cells. When glycine is limiting, formate can enhance the cytotoxicity of SHMT inhibition. […] Mechanistically, by supplying 5,10-methylene-THF, formate may drives residual SHMT enzymatic function in the […] direction.
In contrast, cell growth is further decreased in Su-DHL4 cells by addition of formate. This can be further exacerbated by removal of glycine from the media. […] Using flow cytometry, apoptosis of Su-DHL4 cells were studied with AnnexinV surface staining (FIGS. 12D and 12E).

human SHMT1, sequence (P34896 whole entry): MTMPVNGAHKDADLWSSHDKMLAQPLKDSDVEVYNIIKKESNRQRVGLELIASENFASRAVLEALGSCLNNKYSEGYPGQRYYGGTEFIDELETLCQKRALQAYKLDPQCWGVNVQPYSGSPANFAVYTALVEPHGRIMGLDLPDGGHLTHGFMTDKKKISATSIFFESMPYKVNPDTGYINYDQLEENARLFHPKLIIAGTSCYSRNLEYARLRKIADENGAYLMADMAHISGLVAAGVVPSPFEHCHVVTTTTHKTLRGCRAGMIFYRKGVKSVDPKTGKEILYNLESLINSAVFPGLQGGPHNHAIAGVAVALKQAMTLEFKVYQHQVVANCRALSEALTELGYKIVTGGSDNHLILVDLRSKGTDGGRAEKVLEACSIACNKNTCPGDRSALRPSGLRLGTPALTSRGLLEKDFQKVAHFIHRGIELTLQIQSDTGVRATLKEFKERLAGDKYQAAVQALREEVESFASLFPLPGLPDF
human SHMT2, sequence (P34897 30-504): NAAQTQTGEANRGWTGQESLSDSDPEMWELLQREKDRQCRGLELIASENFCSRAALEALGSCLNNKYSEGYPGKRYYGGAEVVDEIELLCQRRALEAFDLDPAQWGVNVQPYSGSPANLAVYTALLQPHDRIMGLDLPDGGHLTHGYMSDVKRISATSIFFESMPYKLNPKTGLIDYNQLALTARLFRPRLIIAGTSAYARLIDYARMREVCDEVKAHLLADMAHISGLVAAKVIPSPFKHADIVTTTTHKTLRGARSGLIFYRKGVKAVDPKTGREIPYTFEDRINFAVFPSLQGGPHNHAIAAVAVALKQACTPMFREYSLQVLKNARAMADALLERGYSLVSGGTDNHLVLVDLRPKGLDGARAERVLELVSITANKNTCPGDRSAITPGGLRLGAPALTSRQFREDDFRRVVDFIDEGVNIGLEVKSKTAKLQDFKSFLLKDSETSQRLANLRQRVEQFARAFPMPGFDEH
Description for human SHMT1: (§2) For the SHMT1 and SHMT2 in vitro enzymatic assays, the rate of 5,10-methylene tetrahydrofolate formation catalyzed by SHMT1/2 was indirectly evaluated by coupling with excess MTHFD2, which converts NAD+ to NADH allowing for reaction monitoring by absorption at 340 nm. […] Inhibition of initial reaction velocity was determined by adding various inhibitors at different concentrations and monitored as described. IC50 may be calculated based on this assay.
Description for human SHMT2: as §2

In “LogP Value”, `Cc1n[nH]c2c1C(c1cc(C#CCCC(=O)O)cc(C(F)(F)F)c1)(C(C)C)C(C#N)=C(N)O2` (centres unmarked) [Compound 4] showed a logP of 3.56.
Same read-out and setting: for `Cc1n[nH]c2c1C(c1cc(C#CCCCN)cc(C(F)(F)F)c1)(C(C)C)C(C#N)=C(N)O2` (centres unmarked) [Compound 8] the value was 2.72.
Same read-out and setting: for `Cc1n[nH]c2c1C(c1cc(C#CCCC(N)=O)cc(C(F)(F)F)c1)(C(C)C)C(C#N)=C(N)O2` (centres unmarked) [Compound 11] the value was 3.22.
Regarding `Cc1n[nH]c2c1C(c1cc(C#CCCCO)cc(C(F)(F)F)c1)(C(C)C)C(C#N)=C(N)O2` (centres unmarked) [Compound 61, 6-amino-4-(3-(5-hydroxypent-1-yn-1-yl)-5-(trifluoromethyl)phenyl)-4-isopropyl-3-methyl-1,4-dihydropyrano[2,3-c]pyrazole-5-carbonitrile], the “inhibition of growth (proliferation) of HCT116 cells” value in the data set on HCT-116 WT cells (native HCT116) is on record as “inhibited growth”. In addition, the “inhibition of growth of SHMT2 knock-out HCT116 cells versus native” value in the data set on HCT-116 ΔSHMT2 cells is given as “increased potency”.
The compound `Cc1n[nH]c2c1C(c1cc(C#N)cc(C#CCCC(=O)O)c1)(C(C)C)C(C#N)=C(N)O2` (centres unmarked) [Compound 68] yielded a logP in “LogP Value” of 2.37.
On the same count and under the same terms, for `Cc1n[nH]c2c1C(c1cc(C#CCCC(=O)N[C@@H](CCC(=O)O)C(=O)O)cc(C(F)(F)F)c1)(C(C)C)C(C#N)=C(N)O2` (some centres unmarked) [Compound 69] the value was 2.49.
The same measure, in the same setting: for `Cc1n[nH]c2c1C(c1cc(C#N)cc(C#CCCCO)c1)(C(C)C)C(C#N)=C(N)O2` (centres unmarked) [Compound 71] the value was 2.89.
On to `Cc1n[nH]c2c1C(c1cc(C#CCCCO)cc(CO)c1)(C(C)C)C(C#N)=C(N)O2` (centres unmarked) [Compound 74], for which the “CLint (replicate 2)” value in the data set “Liver microsome assay” is on record as 67.96 μL/min/mg protein.
Take `Cc1n[nH]c2c1C(c1cccc(Cl)c1)(C1CCC1)C(C#N)=C(N)O2` (centres unmarked) [HK-3]: on human SHMT2, the IC50 came out at 1190 nM.
As to `COc1cccc(C2(C(C)C)C(C#N)=C(N)Oc3[nH]nc(C)c32)c1` (centres unmarked) [HK-6], the 50% inhibitory concentration (IC50) against human SHMT2 was found to be 4580 nM.
The same measure, in the same setting: for `Cc1n[nH]c2c1C(c1cccc(Cl)c1)(C(C)C)C(C#N)=C(N)O2` (centres unmarked) [HK-7] the value was 400 nM.
Same read-out and setting: for `COc1cc(Cl)cc(C2(C3CCC3)C(C#N)=C(N)Oc3[nH]nc(C)c32)c1` (centres unmarked) [HK-9] the value was 3460 nM.
On to `Cc1n[nH]c2c1C(c1cc(Cl)cc(Cl)c1)(C1CCC1)C(C#N)=C(N)O2` (centres unmarked) [HK-10], for which the IC50 on human SHMT1 was 593 nM; at human SHMT2 it was 1190 nM.
Consider `Cc1n[nH]c2c1C(c1cc(Cl)cc(C(F)(F)F)c1)(C1CCC1)C(C#N)=C(N)O2` (centres unmarked) [HK-11], for which, on human SHMT2, it took 100 nM to reach half-maximal inhibition (IC50).
As to `Cc1n[nH]c2c1C(c1cc(C(F)(F)F)cc(C(F)(F)F)c1)(C1CCC1)C(C#N)=C(N)O2` (centres unmarked) [HK-12], the IC50 was determined as 206 nM on human SHMT1 and 168 nM on human SHMT2.
As for `COc1cc(Cl)cc(C2(C(C)C)C(C#N)=C(N)Oc3[nH]nc(C)c32)c1` (centres unmarked) [HK-13], the IC50 against human SHMT2 amounted to 500 nM.
For the compound `Cc1n[nH]c2c1C(c1cc(Cl)cc(Cl)c1)(C(C)C)C(C#N)=C(N)O2` (centres unmarked) [HK-14], the IC50 at human SHMT1 is 67 nM; on human SHMT2 it was 131 nM.
In the same order, the values of `Cc1n[nH]c2c1C(c1cc(Cl)cc(C(F)(F)F)c1)(C(C)C)C(C#N)=C(N)O2` (centres unmarked) [HK-15] are 20 nM and 35 nM.
On to `Cc1n[nH]c2c1C(c1cc(N3CCCC3)cc(C(F)(F)F)c1)(C(C)C)C(C#N)=C(N)O2` (centres unmarked) [HK-X1], for which, in the data set on HCT-116 WT cells, the “rescue of effects on cell growth by addition of formate” value is “rescued”. The IC50 on human SHMT1 turned out to be 13 nM; against human SHMT2, 66 nM.
Turning to `Cc1n[nH]c2c1C(c1cc(CO)cc(-c3ccccc3)c1)(C(C)C)C(C#N)=C(N)O2` (centres unmarked) [HK-X2], the IC70 in the data set with Su-DHL-4 cells [1] (SU-DHL4, RPMI) worked out at 5000 nM. The “cell growth (or death) over 48 h” value in the data set on Su-DHL-4 cells [1] (formate (1 mM) added) is “fully cytostatic”; with Su-DHL-4 cells [1] (formate added and glycine removed), “significant cell death”. Also, the “rescue of effects on cell growth by addition of formate” value with HCT-116 WT cells is listed as “rescued”. In the data set with 8988T cells, the “concentration that impairs cell growth” value is less than 100 nM. Further, the “apoptotic fraction of cells” value was 8% with Su-DHL-4 cells [2] (Su-DHL4, inhibitor alone) and 15% in the data set on Su-DHL-4 cells [2] (Su-DHL4, inhibitor in the presence of formate). In addition, the “apoptosis measured by Annexin V surface staining” value was “enhanced” in the data set with Su-DHL-4 cells [2] (Su-DHL-4, co-treatment with formate) and “induced apoptosis” in the data set on Su-DHL-4 cells [2] (Su-DHL-4, inhibitor alone).

Usually logP stands for a log measure of how a compound divides between an organic and an aqueous phase. High values mean higher lipophilicity, low ones lower lipophilicity. The IC50 is the concentration at which inhibition is half-maximal. Lower therefore signals inhibition by little substance. Broadly, the IC70 is the concentration at which the effect reaches the 70% level. Lower therefore signals an effect from little substance.
